From patent publication US9211278B2, “Composition containing arylnaphthalene lignan derivative for preventing and/or treating dementia” (KOREA INSTITUTE OF SCIENCE AND TECHNOLOGY, priority 2012, dated 2015)

Tests used:
[1] = tested on: beta-amyloid (Aβ40, Aβ42) formation; test: Beta-amyloid (Aβ40, Aβ42) formation, ELISA, in APP-transfected HeLa cells; format: cell-based, human; conditions: for inhibition of beta-amyloid (Aβ40, Aβ42) formation: HeLa-APP cells, various concentrations (FIGS. 1, 2, 6); for inhibition at 5 µg/mL / inhibition at 1 µM: Homo sapiens, HeLa, read-out: inhibitory effect on the beta-amyloid; for inhibition at 5 µg/mL: 5 μg/ml
Description: To test the inhibitory effect of Justicidin A (C1) obtained in Example 2 on the beta-amyloid formation, HeLa cell line transfected with the amyloid precursor protein (APP) driven from human was cultured in DMEM solution (Cat. #11995, Gibco, USA) for use. The cell line was received from Prof. Tae-Wan Kim at Department of Pathology, Columbia University Medical Center, New York, N.Y. 10032, USA.
Specifically, the Justicidin A of Example 2 was added into the cell line culture at the amount indicated in FIG. 1, and then the produced amount of be-amyloid (Aβ40, Aβ42 was measured. Human β-Amyloid[1-40](Aβ40), Human β-Amyloid [1-42](Aβ42) Colorimetric ELISA kit (#KHB3482 and #KHB3442; BioSource International, Inc., U.S.A.) were used to quantify two types of beta-amyloid (Aβ40, Aβ42).
The 5-methoxyJusticidin A (C2) of Example 2 was added into the cell line culture at the amount indicated in FIG. 2, and then the produced amount of be-amyloid was measured according to the method of Example 1.1. The group which was not treated with 5-methoxyjusticidin A was used as a negative control.
The compounds were used at the amount of FIG. 6, and measured for the beta-amyloid (Aβ40, Aβ42) formation according to the same method of Experimental Example <1-1>. The group treated with Justicidin A(C1) was a positive control and the group with no treatment was a negative control.

[2] = tested on: alpha-secretase product (sAPPα); test: Alpha-secretase product (sAPPα) production, Western blotting; format: cell-based, human; conditions: 8 hours, concentrations of FIG. 5
Description: The test result confirmed that Justicidin A (C1) obtained in Example 2 and 5-methoxyJusticidin A increased alpha-secretase product (sAPPα). Specifically, the produced amount of sAPPα was measured by treating the cultured cell line (the HeLa cell line transfected with the amyloid precursor protein (APP) driven from human) with Justicidin A (S62-C1) or 5-methoxyJusticitdin A (S62-C2) at a concentration of FIG. 5, culturing it for 8 hours, and measuring the produced amount of sAPPα according to the Western blotting. The negative control was the group with no treatment of Justicidin A or 5-methoxyJusticidin A.

Row | Structure (SMILES) | inhibition of beta-amyloid (Aβ40, Aβ42) formation [1] | inhibition at 1 µM [1] [%] | other results
1 | COc1cc2c(-c3ccc4c(c3)OCO4)c3c(c(OC)c2c(OC)c1OC)COC3=O [5-methoxyJusticidin A] | inhibited the beta-amyloid (Aβ40, Aβ42) formation at a concentration-dependent manner | – | formation of alpha-secretase product (sAPPα) [2]: activated the formation of alpha-secretase product (sAPPα)
2 | COc1ccc(-c2c3c(c(O)c4cc5c(cc24)OCO5)COC3=O)cc1OC [Chinensinaphthol] | – | – | inhibition at 5 µg/mL [1]: ~50%
3 | COc1c2c(c(-c3ccc4c(c3)OCO4)c3cc4c(cc13)OCO4)COC2=O [Justicidin D, reference compound] | – | ~20 | –
4 | COc1c2c(c(-c3ccc4c(c3)OCO4)c3cc4c(cc13)OCO4)C(=O)OC2 [Justicidin F, reference compound] | – | ~20 | –
5 | COc1c2c(cc3c(-c4ccc5c(c4)OCO5)c4c(cc13)C(=O)OC4)OCO2 [Justicidin G, reference compound] | – | ~20 | –
6 | COc1ccc(-c2c3c(c(OC)c4cc5c(cc24)OCO5)C(=O)OC3)cc1OC [retrochinensinaphthol methyether, Retrochinensinaphthol methylether] | did not show nearly the inhibition | – | –
7 | COc1ccc(CC2COC(=O)/C2=C/c2ccc3c(c2)OCO3)cc1OC (stereo not drawn) [succilactone] | did not show nearly the inhibition | – | inhibition at 5 µg/mL [1]: ~10%
